Here are results for ten compounds from patent publication US6586410B1, “Lipid-nucleic acid particles prepared via a hydrophobic lipid-nucleic acid complex intermediate and use for gene transfer” (Inex Pharmaceuticals Corporation, priority 1995, dated 2003).

The test system of series [1] is plasmid DNA. The series can be described thus: Bligh and Dyer extraction: DNA partitioning between aqueous and organic phase. In kind it is physicochemical. The note with it: for DNA partitioning: nonlipid cations, charge ratios up to and in excess of 4; for amount of lipid for complete partitioning of the DNA into the organic phase: preformed liposomes; for DNA partitioning into the organic phase versus charge ratio: polyvalent lipids compared with monovalent cationic lipids. Here is the method:
[…] This mixture of solvents and water is equivalent to that used in the preparation of a Bligh and Dyer monophase (Bligh and Dyer, Can. J. Biochem. Physiol. 37:91-97 (1959)). Typically, DNA was added to achieve a final concentration of […] in solution while lipid was added at various concentrations. Trace quantities of 3H-plasmid DNA were added such that 2000 to 4000 dpm were present per 10 g unlabelled DNA. The reaction mixtures were incubated at room temperature for 30 min in a total volume of 1 mL. Subsequently the Bligh and Dyer monophase was partitioned into a two phase system by the addition of water and chloroform (250 L each). The samples were mixed by vortexing and the separation of the lower organic and upper aqueous phases was facilitated by centrifugation at 2000 rpm for 5 min at room temperature. The aqueous phase was removed and retained for scintillation counting. The solvent phase was dried using a stream of nitrogen gas, and the resulting film was resuspended in SOLVABLE solubilizing agent (Dupont NEN, Boston, Mass., USA) and incubated at 50° C. for 1 hour. […] PICOFLUOR scintillant (Canberra Packard, Meriden, Conn., USA) was added to all samples and the radioactivity (3H-DNA) was measured using a Packard TR 1900 Scintillation Counter (Canberra Packard).
Assays evaluating the stability of charge-neutralized, lipid-nucleic acid complexes were done in the presence of varying concentration of NaCl and OGP. Briefly, cationic lipid-nucleic acid complexes were prepared under conditions where 100% of the plasmid was expected to be recovered in the organic phase. NaCl or OGP was then added to the monophase system and incubations carried out at room temperature for 15 min. Bligh and Dyer extractions were performed as described above. The binding of calcium, L-lysine, and poly-L-lysine to the plasmid was evaluated using a modification of the above procedure. These nonlipid cationic materials were dissolved at various concentrations in sterile distilled water and incubated with the plasmid ([…] final concentration in water) at room temperature for 30 min in a final volume of 250 L. Reaction volumes were adjusted to 1 mL with chloroform:methanol (1:2.1) to produce a monophase. Bligh and Dyer extractions were then performed as described.

The nature of series [2]: Plasmid encapsulation (protection from external medium) by anion exchange chromatography on DEAE Sepharose CL-6B. The class given is physicochemical. The note with it: for cationic lipid concentration required for optimal plasmid encapsulation: detergent dialysis. Here is the method: The extent of encapsulation or protection of the plasmid from the external medium was assessed by anion exchange chromatography as follows: a 50 μl aliquot of each sample was eluted on a DEAE Sepharose CL-6B column and the fractions were assessed for both ^3H-plasmid and ^14C-lipid by scintillation counting. Any exposed negative charges, such as those present on DNA molecules will bind-to the anion exchange column and will not elute with the ^14C-lipid. DNA which has its negative charge, “protected” or non-exposed will not bind to the anion exchange resin and will elute with the ^14C-lipid. Alternatively, plasmid DNA was measured using the indicator dye, PicoGreen®.

The subject of series [3] is plasmid DNA. The series can be described thus: Agarose gel electrophoresis: DNA mobility. In kind it is physicochemical. The procedure: Complexes involving plasmid and poly-L-lysine were formed at a nucleic acid concentration of 10 µg/mL and a 1:1 charge ratio in the presence of 100 mM OGP. Complexes involving the cationic lipid DODAC and plasmid were formed at a plasmid concentration of 10 µg/mL and increasing concentrations of DODAC (10 to 320 nmoles/mL). The mixtures were incubated at room temperature for 30 min prior to loading onto a 0.8% agarose gel. Electrophoresis was carried out in TBE buffer according to standard techniques (Sambrook, et al., Molecular Cloning: A Laboratory Manual, Second Edition, Cold Spring Harbor, N.Y. (1989)). Nucleic acids were visualized after staining the gel with ethidium bromide ([…], 20 min) by photography with UV transillumination.

The test system of series [4] is plasmid DNA. The note with it: DNA condensed by addition of polylysine (Reimer et al., 1995); cited from earlier work.
For series [5], the system named is plasmid DNA. The series can be described thus: TO-PRO-1 dye intercalation assay (DNA condensation). In kind it is physicochemical. The note with it: Bligh and Dyer monophase; 1 μM TO-PRO-1; 533 nm. The procedure: The fluorochrome TO-PRO-1 was used to evaluate the state of condensation of the plasmid in the charge-neutralized lipid-nucleic acid complex. TO-PRO-1 was used in this study due to its stable intercalation into the plasmid as well as the high sensitivity in the fluorescence detection compared with the more common intercalator ethidium bromide (see, Hirons, et al., Cytometry 15:129-140 (1994)). Plasmid was dissolved in either the Bligh and Dyer monophase or in 100 mM OGP. Poly-L-lysine or DODAC were each added to 10 g plasmid at a 1:1 charge ratio.
Evaluation of the hydrophobic, charge-neutralized lipid-nucleic acid complexes was carried out by assessing the ability of a small fluorescent probe to bind to the nucleic acid in the complex. […] TO-PRO-1 was then added to a final concentration of 1 μM and fluorescence was measured at 533 nm (probe excitation at 509 nm). […] However, when plasmid DNA was added (10 μg/mL) there was a >600 fold increase in fluorescence at 533 nm. […]
The fluorochrome (TO-PRO-1) was used to evaluate the state of condensation of the DNA in the lipid-nucleic acid particle. […] To measure fluorescence, spectrofluorometric measurements were performed using a Luminescence Spectrometer 50B (Perkin Elmer Ltd., Buckinghamshire, England) with an excitation wavelength of 509 nm and an emission wavelength of 533 nm. […]

Take `[Ca+2].[Cl-].[Cl-]` [calcium, calcium chloride]: in the series on plasmid DNA [1], the DNA partitioning entry is listed as “majority of the DNA was invariably recovered in the aqueous phase”.
For `CCCCCCCCCCCCCCCCCC[N+](C)(C)CCCCCCCCCCCCCCCCCC.[Cl-]` [DSDAC], the “cationic lipid concentration required for optimal plasmid encapsulation” value (“cationic lipid concentration required” below) in series [2] was found to be 6.5%.
Turning to `CCCCCCCC/C=C\CCCCCCCCOCC(C[N+](C)(C)CCNC(=O)C(CCCNCCCN)NCCCN)OCCCCCCCC/C=C\CCCCCCCC.O=C([O-])C(F)(F)F` (stereo not drawn) [DOSPA, N-(-(2,3-dioleyloxy)propyl)-N-(2-(sperminecarboxamido)ethyl)-N,N-dimethylammonium trifluoroacetate], the “amount of lipid for complete partitioning of the DNA into the organic phase” value in the series on plasmid DNA [1] (10 μg DNA) is “approximately 10 nmoles”. Moreover, the “stability of complex in presence of NaCl” value with plasmid DNA [1] (Na+ in a 300-fold molar excess) is recorded as “did not cause partitioning”. For the same compound, the “DNA partitioning into the organic phase versus charge ratio” value in the series with plasmid DNA [1] is on record as “a slightly greater charge ratio was required”.
For the compound `CCCCCCCC/C=C\CCCCCCCC[N+](C)(C)CCCCCCCC/C=C\CCCCCCCC.[Cl-]` [DODAC, N,N-dioleyl-N,N-dimethylammonium chloride], the “cationic lipid concentration required” value in series [2] is 8%. Besides, the “DNA mobility in agarose gel” value with plasmid DNA [3] (addition of 320 nmoles of DODAC) was “decrease in DNA migrating into the gel”. For the same compound, the “DNA partitioned into the organic phase” value in the series with plasmid DNA [1] (10 μg DNA, 40 nmoles DODAC, OGP up to 20 mM) is given as “greater than 99%”.
Turning to `CCCCCCCC/C=C\CCCCCCCCOCC(C[N+](C)(C)C)OCCCCCCCC/C=C\CCCCCCCC.[Cl-]` (stereo not drawn) [DOTMA, N-(1-(2,3-dioleyloxy)propyl)-N,N,N-trimethylammonium chloride], the “cationic lipid concentration required” value in series [2] turned out to be 6.5%.
As for `NCCCC[C@H](N)C(=O)O` [lysine, L-lysine], the DNA partitioning entry with plasmid DNA [1] is “majority of the DNA was invariably recovered in the aqueous phase”.
For `CCCCCCCCCCCCCCOCC(C[N+](C)(C)CCO)OCCCCCCCCCCCCCC.[Br-]` (stereo not drawn) [DMRIE, N-(1,2-dimyristyloxyprop-3-yl)-N,N-dimethyl-N-hydroxyethyl ammonium bromide], in series [2], the “cationic lipid concentration required” value was found to be 8%.
Turning to “poly L-lysine hydrobromide [poly-L-lysine]”, the “DNA mobility in agarose gel” value in the series on plasmid DNA [3] (1:1 charge ratio, 100 mM OGP) is on record as “significantly reduced mobility”. Moreover, the condensation index result in the series with plasmid DNA [4] was “≈ 1.0”. Besides, in the series on plasmid DNA [1], the DNA partitioning result is recorded as “majority of the DNA was invariably recovered in the aqueous phase”. For the same compound, the “TO-PRO-1 fluorescence / binding to DNA” value in the series with plasmid DNA [5] is given as “no fluorescence was observed”.
With “1-O-(2′-(ω-methoxypolyethyleneglycol)succinoyl)-2-N-myristoyl-sphingosine [PEG-C14]”, the “PEG-C14 concentration giving best entrapment” value in series [2] (7.5% DODAC and DOPE, dialysis method) is given as 10 mol %.
For the compound `CCCCCCCCCCCCCCCCCCN(CCCCCCCCCCCCCCCCCC)C(=O)CNC(=O)C(CCCNCCCN)NCCCN` (stereo not drawn) [DOGS], in the series on plasmid DNA [1] (10 μg DNA), the “amount of lipid for complete partitioning of the DNA into the organic phase” value was “approximately 10 nmoles”. Also, the “DNA partitioning into the organic phase versus charge ratio” value in the series on plasmid DNA [1] is on record as “a slightly greater charge ratio was required”.
